From patent publication US20120064514A1, “HIV-1-C […]” (Virco BVBA, priority 2009, published 2012)
“Also recorded” adds a separate entry of the source.

Key:
[1] = system: HIV-1-C recombinant virus stocks (pGEM-HIV-1-C-Δgprt-BstEII backbone); experiment: Antiviral drug susceptibility testing of recombinant virus stocks, subtype C GPRT amplicon in HIV-1 subtype C backbone, MT4-eGFP cells; assay type: cell-based; conditions: for effect of RAM M184V in RT on FC: subtype C backbone, Clone 3 of Sample 3, FC with vs without 184V, FIG. 4; for ratio FCsubtype B/FCsubtype C (fold change in IC50 vs wild-type): same subtype C GPRT amplicons in subtype B vs subtype C backbone, FIG. 3-E, ratio significantly different from 1 (p<0.05) for the listed drugs
Source text: (§1) An HIV subtype C backbone was designed in silico. The complete genome (12 721 bp) was divided into 4 fragments which were chemically synthesized and subsequently joined together by traditional subcloning. Gag-protease-reverse-transcriptase (GPRT) fragments from 8 patient samples infected with subtype C HIV-1 were RT-PCR amplified. The 1.7 kb PCR fragment was cloned into the HIV-1-C backbone (deleted for GPRT) using In-Fusion reagents. Full-genome clones (N ranging from 1 to 5 per patient sample) were transfected in MT4-eGFP cells where cyto-pathogenic effect (CPE), p24 and Viral Load (VL) were monitored. The resulting HIV-1-C recombinant virus stocks (RVSs) were added to MT4-eGFP cells in the presence of serial dilutions of antiretroviral drugs (PI, NNRTI, N(t)RTI) to determine the fold-change in IC50 compared to the IC50 of wild-type HIV-1 virus. Additionally, viral RNA was extracted from the HIV-1-C RVSs and submitted to an RT-PCR. The resulting GPRT amplicons were recombined into a subtype B backbone and phenotyped as described above, allowing the comparison of GPRT resistance profiles in the two backbones.
(§2) 5. Antiviral Drug Susceptibility Testing of Virus Stocks Generated with the pGEM-HIV-1-C-Δgprt-BstEII vs. the pGEM-HXB2-Δgprt-BstEII Backbone but Carrying Identical GPRT Fragments.
(§3) Fold-change values were calculated by dividing the IC50 values of the virus stocks harboring Resistance Associated Mutations (RAMs) by the IC50 values of the corresponding backbone with wild-type amplicon.

[2] = system: recombinant virus stocks with subtype C GPRT in pGEM-HXB2-Δgprt-BstEII (subtype B) backbone; experiment: Antiviral drug susceptibility testing of recombinant virus stocks, subtype C GPRT amplicon in HIV-1 subtype B backbone, MT4-eGFP cells; assay type: cell-based; conditions: Clone 3 of Sample 3, FC with vs without 184V, FIG. 4
Source text: as §1
In contrast to the In-Fusion strategy for the subtype C backbone, a homologous recombination event strategy was used for the subtype B backbone to generate infectious virus. Here the BstEII-linearized pGEM-HXB2Δgprt-BstEII backbone was co-transfected with the 1.8 kb GPRT fragment in an MT4 cell line, resulting in a full-genome infectious virus.
as §2, §3

Cc1cn([C@H]2C=C[C@@H](CO)O2)c(=O)[nH]c1=O [d4T]
effect of RAM M184V in RT on FC [1]: decreases the FC | effect of RAM M184V in RT on FC [2]: decreases the FC

Nc1nc(=O)n([C@@H]2CS[C@H](CO)O2)cc1F [FTC, emtricitabine]
ratio FCsubtype B/FCsubtype C (fold change in IC50 vs wild-type) [1]: 0.50 | effect of RAM M184V in RT on FC [1]: increase in FC | effect of RAM M184V in RT on FC [2]: increase in FC

Cc1cc(C#N)cc(C)c1Oc1nc(Nc2ccc(C#N)cc2)nc(N)c1Br [ETR, etravirine]
ratio FCsubtype B/FCsubtype C (fold change in IC50 vs wild-type) [1]: 0.67

Cc1cccc(C)c1OCC(=O)N[C@@H](Cc1ccccc1)[C@@H](O)C[C@H](Cc1ccccc1)NC(=O)[C@H](C(C)C)N1CCCNC1=O [lopinavir]
ratio FCsubtype B/FCsubtype C (fold change in IC50 vs wild-type) [1]: 1.86

CC(C)CN(C[C@@H](O)[C@H](Cc1ccccc1)NC(=O)O[C@H]1CO[C@H]2OCC[C@H]21)S(=O)(=O)c1ccc(N)cc1 [darunavir]
ratio FCsubtype B/FCsubtype C (fold change in IC50 vs wild-type) [1]: 1.78

Nc1nc(NC2CC2)c2ncn([C@H]3C=C[C@@H](CO)C3)c2n1 [ABC]
effect of RAM M184V in RT on FC [1]: not significantly affected | effect of RAM M184V in RT on FC [2]: not significantly affected

CC(C)OC(=O)OCOP(=O)(CO[C@H](C)Cn1cnc2c(N)ncnc21)OCOC(=O)OC(C)C.O=C(O)/C=C/C(=O)O [TDF]
effect of RAM M184V in RT on FC [1]: decreases the FC | effect of RAM M184V in RT on FC [2]: decreases the FC

Cc1cn([C@H]2C[C@H](N=[N+]=[N-])[C@@H](CO)O2)c(=O)[nH]c1=O [AZT]
effect of RAM M184V in RT on FC [1]: re-sensitizing effects; also recorded: decreases the FC | effect of RAM M184V in RT on FC [2]: re-sensitizing effects; also recorded: decreases the FC

O=c1[nH]cnc2c1ncn2[C@H]1CC[C@@H](CO)O1 [ddI, didanosine]
effect of RAM M184V in RT on FC [1]: not significantly affected | effect of RAM M184V in RT on FC [2]: not significantly affected

Cc1ccnc2c1NC(=O)c1cccnc1N2C1CC1 [nevirapine]
ratio FCsubtype B/FCsubtype C (fold change in IC50 vs wild-type) [1]: 1.61
